Measurements from patent publication US9120779B2, “Inhibitors of HCV NS5A” (PRESIDIO PHARMACEUTICALS, INC., priority 2008, dated 2015).

Each compound was assayed on HCV genotype 1b replicon in Huh 7 cells (assay: HCV replicon assay (luciferase readout, 1b_Huh-Luc/Neo-ET cell line)). Details: Hepatitis C virus, Huh-7, 72 h, read-out: Inhibition of HCV genotype 1b, Table 5, 72 h incubation.
Type: cell-based
Outline: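 Inhibition expressed as percent of untreated control luciferase signal and fitted to a Hill-slope equation for EC50, with repeat determinations. Compounds were added in triplicate to Huh 7 cells stably expressing the genotype 1b luciferase replicon, with 72 h exposure.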

**Q.** How did the EC50 turn out when `COC(=O)N[C@H](C(=O)N1CCC[C@H]1c1ncc(-c2ccc(C34CCC(c5cnc([C@@H]6CCCN6C(=O)[C@H](NC6CCOCC6)c6ccccc6)[nH]5)(CC3)CC4)cc2)[nH]1)C(C)C` [compound 2064] was run?
**A.** < 1 nM

**Q.** How did the EC50 turn out when `COC(=O)N[C@@H](CC(C)C)C(=O)N1CCC[C@H]1c1ncc(C23CCC(c4ccc(-c5cnc([C@@H]6CCCN6C(=O)[C@@H](NC(=O)OC)C(C)C)[nH]5)cc4)(CC2)CC3)[nH]1` [compound 2065] was run?
**A.** < 1 nM

**Q.** For `CC[C@H](C)[C@H](NC(=O)OC)C(=O)N1CCC[C@H]1c1ncc(C23CCC(c4ccc(-c5cnc([C@@H]6CCCN6C(=O)[C@@H](NC(=O)OC)C(C)C)[nH]5)cc4)(CC2)CC3)[nH]1` [compound 2066], which EC50 is on record?
**A.** < 1 nM

**Q.** For `COC(=O)N[C@H](C(=O)N1CCC[C@H]1c1ncc(C23CCC(c4ccc(-c5cnc([C@@H]6CCCN6C(=O)[C@@H](c6ccccc6)N(C)C)[nH]5)cc4)(CC2)CC3)[nH]1)C(C)C` [compound 2067], which EC50 is on record?
**A.** < 1 nM

**Q.** How did the EC50 turn out when `COC(=O)N[C@H](C(=O)N1CCC[C@H]1c1ncc(C23CCC(c4ccc(-c5cnc([C@@H]6CCCN6C(=O)[C@H](NC6CCOCC6)c6ccccc6)[nH]5)cc4)(CC2)CC3)[nH]1)C(C)C` [compound 2068] was run?
**A.** < 1 nM

**Q.** Which EC50 does the source give for `COC(=O)N[C@H](C(=O)N1CCC[C@H]1c1ncc(C23CCC(c4ccc(-c5cnc([C@@H]6CCCN6C(=O)[C@@H](c6ccccc6)N6CCCCC6)[nH]5)cc4)(CC2)CC3)[nH]1)C(C)C` [compound 2069] here?
**A.** < 1 nM

**Q.** Which EC50 does the source give for `COC(=O)N[C@H](C(=O)N1CCC[C@H]1c1ncc(C23CCC(c4ccc(-c5cnc([C@@H]6CCCN6C(=O)[C@@H](C(C)C)N(C)C)[nH]5)cc4)(CC2)CC3)[nH]1)C(C)C` [compound 2070] here?
**A.** < 1 nM

**Q.** How did the EC50 turn out when `COC(=O)N[C@H](C(=O)N1CCC[C@H]1c1ncc(C23CCC(c4ccc(-c5cnc([C@@H]6CCCN6C(=O)[C@H](C(C)C)N6CCC(O)CC6)[nH]5)cc4)(CC2)CC3)[nH]1)C(C)C` [compound 2071] was run?
**A.** < 1 nM

**Q.** Which EC50 does the source give for `COC(=O)N[C@@H](CC(C)C)C(=O)N1CCC[C@H]1c1ncc(-c2ccc(C34CCC(c5cnc([C@@H]6CCCN6C(=O)[C@@H](NC(=O)OC)C(C)C)[nH]5)(CC3)CC4)cc2)[nH]1` [compound 2072] here?
**A.** < 1 nM

**Q.** `CC[C@H](C)[C@H](NC(=O)OC)C(=O)N1CCC[C@H]1c1ncc(-c2ccc(C34CCC(c5cnc([C@@H]6CCCN6C(=O)[C@@H](NC(=O)OC)C(C)C)[nH]5)(CC3)CC4)cc2)[nH]1` [compound 2073] was tested. Which EC50 did it give?
**A.** < 1 nM

**Q.** Which EC50 does the source give for `COC(=O)N[C@H](C(=O)N[C@@H](C)c1ncc(-c2ccc(C34CCC(c5cnc([C@@H]6CCCN6C(=O)[C@@H](NC(=O)OC)C(C)C)[nH]5)(CC3)CC4)cc2)[nH]1)C(C)C` [compound 2074] here?
**A.** < 1 nM

**Q.** Which EC50 does the source give for `COC(=O)N[C@H](C(=O)N1CCC[C@H]1c1ncc(C23CCC(c4ccc(-c5cnc([C@@H]6CCCN6C(=O)[C@H](NC(=O)N6CCCCC6)C(C)C)[nH]5)cc4)(CC2)CC3)[nH]1)C(C)C` [compound 2075] here?
**A.** < 1 nM

**Q.** With `COC(=O)N[C@H](C(=O)N1CCC[C@H]1c1ncc(C23CCC(c4ccc(-c5cnc([C@@H]6CCCN6C(=O)[C@H](NC(=O)N6CCC(O)CC6)C(C)C)[nH]5)cc4)(CC2)CC3)[nH]1)C(C)C` [compound 2076] as the compound, how does the EC50 read?
**A.** < 1 nM

**Q.** With `COC(=O)N[C@H](C(=O)N1CCC[C@H]1c1ncc(C23CCC(c4ccc(-c5cnc([C@@H]6CCCN6C(=O)[C@H](C(C)C)N(C)C)[nH]5)cc4)(CC2)CC3)[nH]1)C(C)C` [compound 2077] as the compound, how does the EC50 read?
**A.** < 1 nM

**Q.** How did the EC50 turn out when `COC(=O)N[C@H](C(=O)N[C@@H](C)c1ncc(-c2ccc(C34CCC(c5cnc([C@@H]6CCCN6C(=O)[C@H](C(C)C)N(C)C)[nH]5)(CC3)CC4)cc2)[nH]1)C(C)C` [compound 2078] was run?
**A.** < 1 nM

**Q.** For `COC(=O)N[C@H](C(=O)N1CCC[C@H]1c1ncc(C23CCC(c4ccc(-c5cnc([C@@H]6CCCN6C(=O)[C@@H](NC(=O)OC6CCOCC6)C(C)C)[nH]5)cc4)(CC2)CC3)[nH]1)C(C)C` [compound 2079], which EC50 is on record?
**A.** 1 to 9.9 nM

**Q.** `COC(=O)N[C@H](C(=O)N1CCC[C@H]1c1ncc(C23CCC(c4ccc(-c5cnc([C@@H]6CCCN6C(=O)[C@H](NC(=O)OC6CCOCC6)C(C)C)[nH]5)cc4)(CC2)CC3)[nH]1)C(C)C` [compound 2080] was tested. Which EC50 did it give?
**A.** < 1 nM

**Q.** How did the EC50 turn out when `COC(=O)N[C@@H](C)C(=O)N1CCC[C@H]1c1ncc(-c2ccc(C34CCC(c5cnc([C@@H]6CCCN6C(=O)[C@@H](NC(=O)OC)C(C)C)[nH]5)(CC3)CC4)cc2)[nH]1` [compound 2081] was run?
**A.** < 1 nM

**Q.** How did the EC50 turn out when `COC(=O)N[C@H](C(=O)N1CCC[C@H]1c1ncc(C23CCC(c4ccc(-c5cnc([C@@H]6CCCN6C(=O)[C@@H](C)NC(=O)OC)[nH]5)cc4)(CC2)CC3)[nH]1)C(C)C` [compound 2082] was run?
**A.** < 1 nM

**Q.** How did the EC50 turn out when `COC(=O)N[C@H](C(=O)N[C@@H](C)c1ncc(-c2ccc(C34CCC(c5cnc([C@@H]6CCCN6C(=O)[C@H](NC(=O)OC)c6ccccc6)[nH]5)(CC3)CC4)cc2)[nH]1)C(C)C` [compound 2083] was run?
**A.** < 1 nM

**Q.** For `COC(=O)N[C@H](C(=O)N1CCC[C@H]1c1ncc(-c2ccc(C34CCC(c5cnc([C@@H]6CCCN6C(=O)[C@H](NC(=O)OC6CCOCC6)C(C)C)[nH]5)(CC3)CC4)cc2)[nH]1)C(C)C` [compound 2084], which EC50 is on record?
**A.** < 1 nM

**Q.** With `COC(=O)N[C@H](C(=O)N[C@@H](C)c1ncc(-c2ccc(C34CCC(c5cnc([C@@H]6CCCN6C(=O)[C@@H](c6ccccc6)N(C)C)[nH]5)(CC3)CC4)cc2)[nH]1)C(C)C` [compound 2085] as the compound, how does the EC50 read?
**A.** < 1 nM

**Q.** With `COC(=O)N[C@@H](C(=O)N1CCOC[C@H]1c1ncc(-c2ccc(C34CCC(c5cnc([C@@H]6CCCN6C(=O)[C@H](NC(=O)OC)c6ccccc6)[nH]5)(CC3)CC4)cc2)[nH]1)c1ccccc1` [compound 2086] as the compound, how does the EC50 read?
**A.** < 1 nM

**Q.** With `COC(=O)N[C@H](C(=O)N1CCOC[C@H]1c1ncc(-c2ccc(C34CCC(c5cnc([C@@H]6CCCN6C(=O)[C@@H](NC(=O)OC)C(C)C)[nH]5)(CC3)CC4)cc2)[nH]1)C(C)C` [compound 2087] as the compound, how does the EC50 read?
**A.** < 1 nM

**Q.** For `COC(=O)N[C@H](C(=O)N1CCC[C@H]1c1ncc(-c2ccc(C34CCC(c5cnc([C@@H]6CCCN6C(=O)[C@H](NC(=O)N6CC[C@@H](O)C6)c6ccccc6)[nH]5)(CC3)CC4)cc2)[nH]1)C(C)C` [compound 2088], which EC50 is on record?
**A.** < 1 nM

**Q.** For `CNC(=O)N[C@@H](C(=O)N1CCC[C@H]1c1ncc(C23CCC(c4ccc(-c5cnc([C@@H]6CCCN6C(=O)[C@@H](NC(=O)OC)C(C)C)[nH]5)cc4)(CC2)CC3)[nH]1)c1ccccc1` [compound 2089], which EC50 is on record?
**A.** < 1 nM

**Q.** For `CCNC(=O)N[C@@H](C(=O)N1CCC[C@H]1c1ncc(C23CCC(c4ccc(-c5cnc([C@@H]6CCCN6C(=O)[C@@H](NC(=O)OC)C(C)C)[nH]5)cc4)(CC2)CC3)[nH]1)c1ccccc1` [compound 2090], which EC50 is on record?
**A.** < 1 nM

**Q.** For `COC(=O)N[C@@H](CC(C)C)C(=O)N1CCC[C@H]1c1ncc(-c2ccc(C34CCC(c5cnc([C@@H]6CCCN6C(=O)[C@H](CC(C)C)NC(=O)OC)[nH]5)(CC3)CC4)cc2)[nH]1` [compound 2091], which EC50 is on record?
**A.** < 1 nM

**Q.** Which EC50 does the source give for `CCC(C)[C@H](NC(=O)OC)C(=O)N1CCC[C@H]1c1ncc(-c2ccc(C34CCC(c5cnc([C@@H]6CCCN6C(=O)[C@@H](NC(=O)OC)C(C)CC)[nH]5)(CC3)CC4)cc2)[nH]1` (some centres unmarked) [compound 2092] here?
**A.** < 1 nM

**Q.** Which EC50 does the source give for `COC(=O)N[C@H](C(=O)N1CCC[C@H]1c1ncc(-c2ccc(C34CCC(c5cnc([C@@H]6CCCN6C(=O)[C@@H](NC(=O)OC)C(C)(C)C)[nH]5)(CC3)CC4)cc2)[nH]1)C(C)(C)C` [compound 2093] here?
**A.** < 1 nM

**Q.** `COC(=O)N[C@H](C(=O)N1CCC[C@H]1c1ncc(-c2ccc(C34CCC(c5cnc([C@@H]6CCCN6C(=O)[C@@H](NC(=O)OC)C6CCCC6)[nH]5)(CC3)CC4)cc2)[nH]1)C1CCCC1` [compound 2094] was tested. Which EC50 did it give?
**A.** < 1 nM

**Q.** `CNC(=O)N[C@H](C(=O)N1CCC[C@H]1c1ncc(-c2ccc(C34CCC(c5cnc([C@@H]6CCCN6C(=O)[C@@H](NC(=O)OC)C(C)C)[nH]5)(CC3)CC4)cc2)[nH]1)C(C)C` [compound 2095] was tested. Which EC50 did it give?
**A.** < 1 nM

**Q.** `CCNC(=O)N[C@H](C(=O)N1CCC[C@H]1c1ncc(-c2ccc(C34CCC(c5cnc([C@@H]6CCCN6C(=O)[C@@H](NC(=O)OC)C(C)C)[nH]5)(CC3)CC4)cc2)[nH]1)C(C)C` [compound 2096] was tested. Which EC50 did it give?
**A.** < 1 nM

**Q.** With `COC(=O)N[C@H](C(=O)N[C@@H](C)c1ncc(C23CCC(c4ccc(-c5cnc([C@@H]6CCCN6C(=O)[C@@H](NC(=O)OC)C(C)C)[nH]5)cc4)(CC2)CC3)[nH]1)C(C)C` [compound 2097] as the compound, how does the EC50 read?
**A.** < 1 nM

**Q.** How did the EC50 turn out when `COC(=O)N[C@@H](C(=O)N[C@@H](C)c1ncc(C23CCC(c4ccc(-c5cnc([C@@H]6CCCN6C(=O)[C@H](NC(=O)OC)c6ccccc6)[nH]5)cc4)(CC2)CC3)[nH]1)c1ccccc1` [compound 2098] was run?
**A.** < 1 nM

**Q.** How did the EC50 turn out when `CNC(=O)N[C@H](C(=O)N1CCC[C@H]1c1ncc(C23CCC(c4ccc(-c5cnc([C@@H]6CCCN6C(=O)[C@@H](NC(=O)OC)C(C)C)[nH]5)cc4)(CC2)CC3)[nH]1)C(C)C` [compound 2099] was run?
**A.** < 1 nM

**Q.** How did the EC50 turn out when `CCNC(=O)N[C@H](C(=O)N1CCC[C@H]1c1ncc(C23CCC(c4ccc(-c5cnc([C@@H]6CCCN6C(=O)[C@@H](NC(=O)OC)C(C)C)[nH]5)cc4)(CC2)CC3)[nH]1)C(C)C` [compound 2100] was run?
**A.** < 1 nM

**Q.** For `COC(=O)N[C@H](C(=O)N1CCC[C@H]1c1ncc(C23CCC(c4ccc(-c5cnc([C@@H]6CCCN6C(=O)[C@H](NC(=O)N6CCC(O)CC6)c6ccccc6)[nH]5)cc4)(CC2)CC3)[nH]1)C(C)C` [compound 2101], which EC50 is on record?
**A.** < 1 nM

**Q.** `CNC(=O)N[C@@H](C(=O)N1CCC[C@H]1c1ncc(-c2ccc(C34CCC(c5cnc([C@@H]6CCCN6C(=O)[C@@H](NC(=O)OC)C(C)C)[nH]5)(CC3)CC4)cc2)[nH]1)c1ccccc1` [compound 2102] was tested. Which EC50 did it give?
**A.** < 1 nM

**Q.** With `CCNC(=O)N[C@@H](C(=O)N1CCC[C@H]1c1ncc(-c2ccc(C34CCC(c5cnc([C@@H]6CCCN6C(=O)[C@@H](NC(=O)OC)C(C)C)[nH]5)(CC3)CC4)cc2)[nH]1)c1ccccc1` [compound 2103] as the compound, how does the EC50 read?
**A.** < 1 nM

**Q.** Which EC50 does the source give for `COC(=O)N[C@H](C(=O)N1CCC[C@H]1c1ncc(-c2ccc(C34CCC(c5cnc([C@H](C)NC(=O)[C@H](NC(=O)OC)c6ccccc6)[nH]5)(CC3)CC4)cc2)[nH]1)C(C)C` [compound 2104] here?
**A.** < 1 nM
